Data: patent publication US20250134870A1, “PATHWAY MODULATOR, PHARMACEUTICAL COMPOSITION HAVING SAME, USE THEREOF, AND THERAPEUTIC METHOD USING SAME” (Jiangsu Yahong Meditech Co., Ltd., priority 2021, published 2025)

What was measured:
[1] = Body weight and weight change rate of EAU rats (Example 6); assay type: in vivo, Lewis rats; settings: 0.4 mg/kg PO QD
Excerpt: Wherein, Day 0 referred to the day of immunization. The body weight of each rat was monitored twice a week after immunization.
(§1) Dosing started from Day 0 accurately according to the animal body weight for a total of 16 days.

[2] = tested on: IRBP R16-induced experimental autoimmune uveoretinitis (EAU); assay: Bovine IRBP R16-induced experimental autoimmune uveoretinitis (EAU): clinical score, AUC, incidence (Example 6); assay type: in vivo, Lewis rats; settings: for Incidence rate (%): 0.4 mg/kg PO QD
Method: On Day-1 (i.e., the day before immunization, hereinafter), 60 rats were randomly divided into 6 groups (n=10) based on body weight (see Table 18). On Day 0, rats in Groups 2 to 6 were anesthetized with isoflurane, followed by subcutaneous injection of a total of […] of emulsion resulting from IRBP R16 and CFA emulsified at a 1:1 v/v ratio, on both thighs (50 μL at each site) and tail head (100 μL), respectively.
From Day 0 after immunization, the eyes of rats were checked daily with a flashlight by gently opening the upper and lower eyelids of the test rats, and the incidence of disease was recorded. Clinical symptoms were scored in a blind manner from the onset of disease to the end of the study according to the criteria listed in Table 17.
as §1
The results were expressed as “mean±standard error”. Graphpad Prism or SPSS was used for statistical analysis, and p<0.05 was considered statistically significant.

[3] = tested on: imiquimod (IMQ)-induced psoriasis; assay: Imiquimod (IMQ)-induced psoriasis in mice: erythema, scales, thickness, total score, AUC (Example 8); assay type: in vivo, Balb/c mice; design: key to erythema score / scales score / thickness score: 0 = none, 1 = mild, 2 = moderate, 3 = obvious/severe; key to total score of erythema + scales + thickness: sum of three 0-3 scores (erythema + scales + thickening), 0-9; settings: for erythema score / scales score: 2 mg/kg topical QD; for thickness score / total score of erythema + scales + thickness: positive control group
Method: All mice were shaved with a pet shaver to get an area of 2×3 cm on the back one day before the start of the experiment.
65 animals were randomly divided into groups according to body weight, and the dosing regimen was as follows.
Imiquimod (IMQ) cream: 62.5 mg of IMQ cream for each mouse in G2 to G7; Dexamethasone (DEX) ointment: 70 mg of ointment for each mouse in G4;
Tofacitinib: Tofacitinib was dissolved in dimethyl sulfoxide to 5 mg/mL, and 50 μL was added to IMQ cream for daily treatment.
Mice in Groups 2 to 7 received daily topical doses of 62.5 mg of IMQ cream on their shaved back from Day 0 to Day 7.
Dosing of the test compounds and reference substance was carried out according to Table 29 for 7 consecutive days.
To assess the severity of inflammation of skin on the back, the skin on the back was scored according to Table 30. Erythema, scales and thickening were scored independently on a scale of 0 to 3, 0, none; 1. mild; 2. moderate; 3. obvious/severe.
The inhibition rate was calculated according to the following formula: Inhibition rate=[AUC (solvent)−AUC (treatment)]/AUC (solvent)×100%. Wherein, solvent referred to the solvent group corresponding to the route of administration.

[4] = Body weight and spleen weight in IMQ-induced psoriasis mice (Example 8); assay type: in vivo, Balb/c mice; settings: 2 mg/kg topical QD × 7 days (G4)
Excerpt: 4) Spleen samples were collected and weighed (FIG. 23).
Body weight was monitored daily throughout the study. Continuous use of IMQ cream could reduce the mean body weight of the solvent group. […] However, there was no statistically significant difference between the treatment and solvent groups (FIG. 21)

C[C@@H]1C[C@H]2[C@@H]3CCC4=CC(=O)C=C[C@]4(C)[C@@]3(F)[C@@H](O)C[C@]2(C)[C@@]1(O)C(=O)CO [Dexamethasone]
Rat body weight ([1]; Day 2): 174.65 g
Weight change rate (%) ([1]; Day 2): −7.26%
Rat body weight ([1]; Day 6): 166.65 g
Weight change rate (%) ([1]; Day 6): −11.53%
Rat body weight ([1]; Day 9): 164.05 g
Weight change rate (%) ([1]; Day 9): −12.92%
Rat body weight ([1]; Day 13): 162.10 g
Weight change rate (%) ([1]; Day 13): −13.99%
Rat body weight ([1]; Day 16): 161.29 g
Weight change rate (%) ([1]; Day 16): −14.44%
Rat body weight ([1]; Day −1): 188.46 g
Weight change rate (%) ([1]; Day −1): 0.00%
Area under the curve (AUC) of clinical score ([2]; 0.4 mg/kg PO QD × 16 days): 7.68
Incidence rate (%) ([2]; Day 0): 0%
Incidence rate (%) ([2]; Day 1): 0%
Incidence rate (%) ([2]; Day 2): 0%
Incidence rate (%) ([2]; Day 3): 0%
Incidence rate (%) ([2]; Day 4): 0%
Incidence rate (%) ([2]; Day 5): 0%
Incidence rate (%) ([2]; Day 6): 0%
Incidence rate (%) ([2]; Day 7): 10%
Incidence rate (%) ([2]; Day 8): 20%
Incidence rate (%) ([2]; Day 9): 100%
Incidence rate (%) ([2]; Day 10): 100%
Incidence rate (%) ([2]; Day 11): 90%
Incidence rate (%) ([2]; Day 12): 90%
Incidence rate (%) ([2]; Day 13): 90%
Incidence rate (%) ([2]; Day 14): 90%
Incidence rate (%) ([2]; Day 15): 90%
Incidence rate (%) ([2]; Day 16): 90%
Incidence rate (%) ([2]; Day −1): 0%
inhibition at 0.4 mg/kg ([2]; Rattus norvegicus, 384 h, 0.4 mg/kg PO QD × 16 days, vs model control, read-out: Inhibition rate of clinical score AUC): 84.5%
erythema score ([3]; Day 0): 0
scales score ([3]; Day 0): 0
thickness score ([3]; Day 0): 0
total score of erythema + scales + thickness ([3]; Day 0): 0
erythema score ([3]; Day 1): 0
scales score ([3]; Day 1): 0
thickness score ([3]; Day 1): 0
total score of erythema + scales + thickness ([3]; Day 1): 0
erythema score ([3]; Day 2): 0
scales score ([3]; Day 2): 0
thickness score ([3]; Day 2): 0
total score of erythema + scales + thickness ([3]; Day 2): 0
erythema score ([3]; Day 3): 0.2
scales score ([3]; Day 3): 0
thickness score ([3]; Day 3): 0
total score of erythema + scales + thickness ([3]; Day 3): 0
erythema score ([3]; Day 4): 0.1
scales score ([3]; Day 4): 0.2
thickness score ([3]; Day 4): 0
total score of erythema + scales + thickness ([3]; Day 4): 0.3
erythema score ([3]; Day 5): 0.1
scales score ([3]; Day 5): 0.2
thickness score ([3]; Day 5): 0
total score of erythema + scales + thickness ([3]; Day 5): 0.3
erythema score ([3]; Day 6): 0
scales score ([3]; Day 6): 0.2
thickness score ([3]; Day 6): 0
total score of erythema + scales + thickness ([3]; Day 6): 0.2
erythema score ([3]; Day 7): 0
scales score ([3]; Day 7): 0.1
thickness score ([3]; Day 7): 0
total score of erythema + scales + thickness ([3]; Day 7): 0.1
inhibition at 2 mg/kg ([3]; Mus musculus, 168 h, 2 mg/kg topical QD × 7 days, vs corresponding solvent group, read-out: inhibition rate (AUC of total clinical score)): 97%
body weight (weight loss) [4]: weight loss was more dramatic
